The target in assay [1] is T1, bovine cardiac myofibrils (Bos taurus, UniProt Q9BE39).
T1 construct: full-length cardiac myosin in the context of the native sarcomere; from tissue; host or cells: bovine cardiac left ventricular tissue, detergent-skinned (Triton X-100) myofibrils
The assay is described as follows: Skinned bovine cardiac myofibril ATPase assay (PK/LDH-coupled). Type of assay: biochemical. As to conditions: myofibril ATPase at Ca2+ giving 75% activation (pCa75). From the text: Bovine cardiac myofibrils were obtained by homogenizing bovine cardiac left ventricular tissue in the presence of a detergent such as triton X-100. Such treatment removes membranes and a majority of the soluble cytoplasmic proteins but leaves intact the cardiac sarcomeric acto-myosin apparatus. Myofibril preparations retain the ability to hydrolyze ATP in a Ca^2+ regulated manner. […] This assay regenerates myosin-produced ADP into ATP by oxidizing NADH, producing an absorbance change at 340 nm.

For assay [2], the system named is rat cardiac contractility. The assay is described as follows: Echocardiography assessment of cardiac contractility, oral gavage. Type of assay: in vivo, Sprague Dawley rats. As to conditions: oral dosing, estimated value. As for the experimental part:
Assessment of in vivo cardiac function by echocardiography was performed in male Sprague Dawley rats under isoflurane (1-3%) anesthesia. […] In vivo fractional shortening was determined by M-mode image analysis with the following calculation: ((End diastolic diameter−end systolic diameter)/end diastolic diameter×100). […] During infusion, M-mode images were taken at 5 minute intervals. The infusion stopped when fractional shortening reached up to a 60% reduction from baseline. […] Data was reported as an estimated IC50 value, which is the concentration at which fractional shortening is 50% of the pre-dose baseline contractility.
For oral dosing studies, three pre-dose baseline M-Mode images were taken at 1 minute intervals prior to compound administration. […] Rats were lightly anesthetized for M-Mode echocardiography measurements at select time points over a 24 hour period. Different dose levels were evaluated for (R)-N-(5-(5-ethyl-1,2,4-oxadiazol-3-yl)-2,3-dihydro-1H-inden-1-yl)-1-methyl-1H-pyrazole-4-carboxamide. The compound effect on cardiac fractional shortening at the highest dose evaluated is presented in Table D as a percent reduction of baseline fractional shortening (=100%).

The source of these data is US20220265612A1, “CARDIAC SARCOMERE INHIBITOR ORAL FORMULATIONS” (Cytokinetics, Inc., priority 2019, published 2022).

T1 sequence (Q9BE39 whole entry): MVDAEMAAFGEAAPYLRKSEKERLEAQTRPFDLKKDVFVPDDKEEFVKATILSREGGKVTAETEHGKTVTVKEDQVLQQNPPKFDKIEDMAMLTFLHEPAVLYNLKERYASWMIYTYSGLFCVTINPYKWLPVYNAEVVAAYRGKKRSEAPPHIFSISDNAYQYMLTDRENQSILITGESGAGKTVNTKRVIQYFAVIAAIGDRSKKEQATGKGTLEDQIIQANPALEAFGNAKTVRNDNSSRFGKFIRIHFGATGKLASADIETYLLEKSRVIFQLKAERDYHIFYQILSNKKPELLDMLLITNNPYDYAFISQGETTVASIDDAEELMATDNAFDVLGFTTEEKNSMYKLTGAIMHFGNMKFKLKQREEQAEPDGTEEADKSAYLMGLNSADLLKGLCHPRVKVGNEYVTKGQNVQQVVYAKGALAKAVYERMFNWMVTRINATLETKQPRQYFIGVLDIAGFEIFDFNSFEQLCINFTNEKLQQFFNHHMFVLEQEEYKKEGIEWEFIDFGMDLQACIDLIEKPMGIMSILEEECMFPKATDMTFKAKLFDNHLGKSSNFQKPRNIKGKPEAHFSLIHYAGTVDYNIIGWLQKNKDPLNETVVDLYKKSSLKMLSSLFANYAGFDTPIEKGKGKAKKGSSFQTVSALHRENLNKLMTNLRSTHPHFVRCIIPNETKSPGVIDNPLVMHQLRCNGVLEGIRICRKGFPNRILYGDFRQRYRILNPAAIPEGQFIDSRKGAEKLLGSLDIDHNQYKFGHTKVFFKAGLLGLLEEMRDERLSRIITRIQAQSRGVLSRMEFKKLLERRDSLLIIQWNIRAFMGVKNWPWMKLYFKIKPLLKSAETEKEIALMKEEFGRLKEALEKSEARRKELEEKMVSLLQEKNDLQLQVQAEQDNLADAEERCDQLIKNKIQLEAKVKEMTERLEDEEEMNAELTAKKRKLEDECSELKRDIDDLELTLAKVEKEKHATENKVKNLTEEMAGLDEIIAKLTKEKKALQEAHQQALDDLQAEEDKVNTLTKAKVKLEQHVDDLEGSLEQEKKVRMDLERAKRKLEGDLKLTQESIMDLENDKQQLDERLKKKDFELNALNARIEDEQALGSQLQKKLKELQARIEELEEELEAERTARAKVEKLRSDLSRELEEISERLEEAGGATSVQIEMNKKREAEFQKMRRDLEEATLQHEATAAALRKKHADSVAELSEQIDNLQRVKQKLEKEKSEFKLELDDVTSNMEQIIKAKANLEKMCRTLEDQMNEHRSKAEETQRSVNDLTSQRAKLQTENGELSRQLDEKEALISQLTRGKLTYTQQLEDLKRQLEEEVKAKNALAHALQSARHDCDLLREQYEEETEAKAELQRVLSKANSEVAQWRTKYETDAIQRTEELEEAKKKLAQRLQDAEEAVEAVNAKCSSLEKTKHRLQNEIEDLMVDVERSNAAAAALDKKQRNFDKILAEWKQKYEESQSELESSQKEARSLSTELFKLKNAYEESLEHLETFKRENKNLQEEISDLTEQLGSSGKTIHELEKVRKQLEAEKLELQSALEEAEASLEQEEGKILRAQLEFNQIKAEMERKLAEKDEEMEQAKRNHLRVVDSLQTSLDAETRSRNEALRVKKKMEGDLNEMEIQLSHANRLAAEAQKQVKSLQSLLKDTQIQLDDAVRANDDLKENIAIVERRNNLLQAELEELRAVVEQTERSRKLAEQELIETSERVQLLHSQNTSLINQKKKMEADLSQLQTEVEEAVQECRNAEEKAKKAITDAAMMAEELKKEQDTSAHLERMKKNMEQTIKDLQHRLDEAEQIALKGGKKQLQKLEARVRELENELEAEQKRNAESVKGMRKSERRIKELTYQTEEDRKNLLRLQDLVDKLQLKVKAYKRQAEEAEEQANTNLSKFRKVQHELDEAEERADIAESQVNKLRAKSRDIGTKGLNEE
T1 sequence (P85100 whole entry partner): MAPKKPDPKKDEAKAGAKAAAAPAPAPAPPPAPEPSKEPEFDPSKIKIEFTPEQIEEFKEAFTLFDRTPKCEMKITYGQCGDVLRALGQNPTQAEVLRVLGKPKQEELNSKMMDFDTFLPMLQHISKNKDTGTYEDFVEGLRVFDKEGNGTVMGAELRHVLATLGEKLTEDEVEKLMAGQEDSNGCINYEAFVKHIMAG
T1 sequence (Q3SZE5 whole entry partner): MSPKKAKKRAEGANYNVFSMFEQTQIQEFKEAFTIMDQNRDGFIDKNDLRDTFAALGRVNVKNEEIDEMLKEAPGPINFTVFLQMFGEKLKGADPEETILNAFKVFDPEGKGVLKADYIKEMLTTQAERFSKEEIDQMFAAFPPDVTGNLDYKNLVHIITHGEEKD

With `CCc1nc(-c2ccc3c(c2)CC[C@H]3NC(=O)c2cnn(C)c2)no1` [(R)-N-(5-(5-ethyl-1,2,4-oxadiazol-3-yl)-2,3-dihydro-1H-inden-1-yl)-1-methyl-1H-pyrazole-4-carboxamide], the “CDMF75 IC15” value in assay [1] is 400 nM. For the same compound, the “IC10, plasma concentration for fractional shortening” value in assay [2] was 800 nM.
